# Test results as given in the supplement of paper PMC10307832.
# Columns and labels:
# Assay in all cases: relative viability (nuclei count vs DMSO), 5 days (fraction); higher = more cells survive
# AGI-6780 + Luminespib = compound: O=C(Nc1cccc(C(F)(F)F)c1)Nc1cc(S(=O)(=O)NC2CC2)ccc1-c1ccsc1 [AGI-6780] + CCNC(=O)c1noc(-c2cc(C(C)C)c(O)cc2O)c1-c1ccc(CN2CCOCC2)cc1 [Luminespib] (partner 0.01 µM)
# Procedure, shortened: (§1)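 One day after seeding in 1536-well plates, lung cancer cell lines were dosed by pin tool. Dosing was either single-drug or a fixed anchor-drug dose plus five library-drug doses (not always all listed) in √10 steps. After 5 days, nuclei were stained in one fix-and-stain step and counted on 4× images, and relative viability is the nuclei count of treated wells over that of vehicle wells, given as the median of duplicate plates.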
# AGI-6780 + Tozasertib = compound: O=C(Nc1cccc(C(F)(F)F)c1)Nc1cc(S(=O)(=O)NC2CC2)ccc1-c1ccsc1 [AGI-6780] + Cc1cc(Nc2cc(N3CCN(C)CC3)nc(Sc3ccc(NC(=O)C4CC4)cc3)n2)n[nH]1 [Tozasertib] (partner 0.1 µM)
# Procedure, shortened: as §1
# AGI-6780 + Alpelisib = compound: O=C(Nc1cccc(C(F)(F)F)c1)Nc1cc(S(=O)(=O)NC2CC2)ccc1-c1ccsc1 [AGI-6780] + Cc1nc(NC(=O)N2CCC[C@H]2C(N)=O)sc1-c1ccnc(C(C)(C)C(F)(F)F)c1 [Alpelisib] (partner 2 µM)
# Procedure, shortened: as §1
# AGI-6780 + Dasatinib = compound: O=C(Nc1cccc(C(F)(F)F)c1)Nc1cc(S(=O)(=O)NC2CC2)ccc1-c1ccsc1 [AGI-6780] + Cc1nc(Nc2ncc(C(=O)Nc3c(C)cccc3Cl)s2)cc(N2CCN(CCO)CC2)n1 [Dasatinib] (partner 0.075 µM)
# Procedure, shortened: as §1
Cell Line,relative viability (AGI-6780 + Luminespib; first compound 0.08 µM),relative viability (AGI-6780 + Luminespib; first compound 0.253 µM),relative viability (AGI-6780 + Luminespib; first compound 0.8 µM),relative viability (AGI-6780 + Luminespib; first compound 2.53 µM),relative viability (AGI-6780 + Luminespib; first compound 8 µM),relative viability (AGI-6780 + Tozasertib; first compound 0.08 µM),relative viability (AGI-6780 + Tozasertib; first compound 0.253 µM),relative viability (AGI-6780 + Tozasertib; first compound 0.8 µM),relative viability (AGI-6780 + Tozasertib; first compound 2.53 µM),relative viability (AGI-6780 + Tozasertib; first compound 8 µM),relative viability (AGI-6780 + Alpelisib; first compound 0.08 µM),relative viability (AGI-6780 + Alpelisib; first compound 0.253 µM),relative viability (AGI-6780 + Alpelisib; first compound 0.8 µM),relative viability (AGI-6780 + Alpelisib; first compound 2.53 µM),relative viability (AGI-6780 + Alpelisib; first compound 8 µM),relative viability (AGI-6780 + Dasatinib; first compound 0.08 µM),relative viability (AGI-6780 + Dasatinib; first compound 0.253 µM),relative viability (AGI-6780 + Dasatinib; first compound 0.8 µM),relative viability (AGI-6780 + Dasatinib; first compound 2.53 µM),relative viability (AGI-6780 + Dasatinib; first compound 8 µM)
LU99A,0.229,0.258,0.235,0.223,0.277,0.237,0.275,0.294,0.237,0.299,0.528,0.524,0.516,0.518,0.558,0.52,0.58,0.689,0.401,0.629
LXF-289,0.776,0.723,0.679,0.606,0.659,0.201,0.225,0.152,0.131,0.25,1.03,1.04,1.07,1.09,1.03,0.228,0.213,0.192,0.155,0.204
NCI-H23,–,0.202,0.231,–,0.205,0.347,0.365,0.35,0.379,0.343,0.971,0.745,0.811,0.473,0.791,0.922,0.701,0.752,0.378,0.735
NCI-H522,1.18,1.14,1.1,1.12,1.17,0.485,0.5,0.606,0.534,0.53,–,–,–,–,–,0.941,0.85,1.01,0.812,0.836
NCI-H1299,–,–,–,–,–,–,–,–,–,–,1.02,1.04,0.971,1.09,1.02,–,–,–,–,–
NCI-H1563,0.585,0.537,0.577,0.492,0.542,–,–,–,–,–,0.923,0.934,0.846,0.992,0.874,0.51,0.51,0.459,0.459,0.459
NCI-H1648,–,–,–,–,–,0.45,0.581,0.639,0.401,0.378,–,–,–,–,–,–,–,–,–,–
NCI-H1650,0.187,0.203,0.219,0.228,0.191,0.367,0.432,0.442,0.381,0.293,–,–,–,–,–,0.337,0.371,0.38,0.274,0.366
NCI-H1703,–,–,–,–,–,–,–,–,–,–,0.377,0.278,0.424,0.344,0.251,–,–,–,–,–
NCI-H1792,0.52,0.354,0.371,0.443,0.366,–,–,–,–,–,0.763,0.677,0.693,0.702,0.558,–,0.859,0.663,0.719,0.728
NCI-H2342,0.604,0.68,0.679,0.552,1.09,0.56,0.52,0.593,0.43,0.597,–,–,–,–,–,0.3,0.369,0.34,0.302,0.317
SW 900,0.167,0.17,0.163,0.185,0.176,0.526,0.52,0.644,0.473,0.512,–,–,–,–,–,0.542,0.675,0.555,0.587,0.571
